Reference: patent US9388147B2 (Receptos, Inc., priority 2009, dated 2016)

Biological target: S1P1/EDG1 (Homo sapiens, UniProt P21453)
Assay: S1P1 CRE-bla CHOK1 reporter assay, inhibition of Forskolin induced cAMP
Assay type: cell-based
Details: agonist activity range, S1P1 CRE-bla CHOK1, 2 μM Forskolin; read-out: S1P1 ACTIVITY
Protocol: Generation of S1P1-Mediated Inhibition of cAMP Reporter Assay
A mammalian expression plasmid containing S1P1/EDG1 cloned into pcDNA3.1 was purchased from Missouri S&T cDNA Resource Centre. […] S1P1/pcDNA3.1 was transfected into the CRE-bla CHO K1 (Invitrogen) cell line, and stable single cell clones were selected using standard techniques.
S1P1 CRE-Bla CHOK1 Reporter Assay—Characterization of S1P1 Agonists
Cells were seeded into 384-well black wall/clear bottom plates at 10^4 cells/well/19.5 μl assay media (DMEM-phenol free, 0.5% charcoal/dextran stripped serum, 2 mM glutamine, 0.1 mM NEAA, 1 mM Na-Pyruvate, 25 mM Hepes) and incubated for 18 hrs at 37° C. in 5% CO2. Dose response curves (10-point) were generated in 10 mM Hepes, 0.1% Pluronic F127, in the presence of Forskolin. Cells were treated with 0.5 μl compound in the presence of 2 μM Forskolin for 4 hrs at 37° C. The FRET-based β-lactamase fluorescent substrate (LiveBLAzer™-FRET B/G Loading Kit CC4-AM; Invitrogen) was prepared according to manufacturer's directions, and incubated with cells for 2 hrs at room temperature. […] Data was analyzed by non-linear regression to determine the EC50 for inhibition of Forskolin induced cAMP.

Chain of S1P1/EDG1 (P21453 whole entry): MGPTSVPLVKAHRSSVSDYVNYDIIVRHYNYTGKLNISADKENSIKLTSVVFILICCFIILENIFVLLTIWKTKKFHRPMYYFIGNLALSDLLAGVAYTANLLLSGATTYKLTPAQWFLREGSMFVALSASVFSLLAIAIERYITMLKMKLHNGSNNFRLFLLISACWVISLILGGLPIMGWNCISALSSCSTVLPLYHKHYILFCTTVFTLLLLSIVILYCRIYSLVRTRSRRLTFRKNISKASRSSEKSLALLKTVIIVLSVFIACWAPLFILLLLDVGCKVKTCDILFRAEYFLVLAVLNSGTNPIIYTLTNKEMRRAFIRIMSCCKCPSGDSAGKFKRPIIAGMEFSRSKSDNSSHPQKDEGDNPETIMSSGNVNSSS

CC(C)Oc1ccc(-c2nc(-c3cccc4c3CCC4NC[C@@H](O)CO)no2)cc1C#N (mixture of isomers) [Compound 30]
EC50: 0.05 to 0.5 nM

CC(C)Oc1ccc(-c2nc(-c3cccc4c3CCC4N3CC[C@@H](N)C3)no2)cc1C#N (mixture of isomers) [Compound 31]
EC50: > 5 nM

CC(C)Oc1ccc(-c2nc(-c3cccc4c3CCC4N3CC[C@H](N)C3)no2)cc1C#N (mixture of isomers) [Compound 32]
EC50: 0.5 to 5 nM

CC(C)Oc1ccc(-c2nc(-c3cccc4c3CCC4N3CC[C@@H](O)C3)no2)cc1C#N (mixture of isomers) [Compound 33]
EC50: 0.5 to 5 nM

CC(C)Oc1ccc(-c2nc(-c3cccc4c3CCC4N3CC[C@H](O)C3)no2)cc1C#N (mixture of isomers) [Compound 34]
EC50: 0.5 to 5 nM

CC(C)Oc1ccc(-c2nc(-c3cccc4c3CCC4NC[C@H](O)CO)no2)cc1C#N (mixture of isomers) [Compound 41]
EC50: 0.05 to 0.5 nM

CC(C)Oc1ccc(-c2nc(-c3cccc4c3CCC4NC[C@@H](C)O)no2)cc1C#N (mixture of isomers) [Compound 42]
EC50: 0.5 to 5 nM

CC(C)Oc1ccc(-c2nc(-c3cccc4c3CCC4NC[C@H](C)O)no2)cc1C#N (mixture of isomers) [Compound 43]
EC50: 0.05 to 0.5 nM

CC(C)Oc1ccc(-c2nc(-c3cccc4c3CC[C@H]4NC(C)C(=O)N(C)C)no2)cc1C#N (mixture of isomers) [Compound 58]
EC50: 0.5 to 5 nM

N#Cc1cc(-c2nc(-c3cccc4c3CCC4NCCO)no2)ccc1OC[C@@H](O)CO (mixture of isomers) [Compound 104]
EC50: > 5 nM

CC(C)Oc1ccc(-c2nc(-c3cccc4c3CCC4NC(C)(C)CO)no2)cc1C#N (racemic) [Compound 15]
EC50: 0.5 to 5 nM

CC(C)Oc1ccc(-c2nc(-c3cccc4c3CCC4N3CCC(O)CC3)no2)cc1C#N (racemic) [Compound 16, 5-(3-(1-(4-hydroxypiperidin-1-yl)-2,3-dihydro-1H-inden-4-yl)-1,2,4-oxadiazol-5-yl)-2-isopropoxybenzonitrile]
EC50: 0.05 to 0.5 nM

CC(C)Oc1ccc(-c2nc(-c3cccc4c3CCC4NC(CO)CO)no2)cc1C#N (racemic) [Compound 17, 5-(3-(1-((1,3-dihydroxypropan-2-yl)amino)-2,3-dihydro-1H-inden-4-yl)-1,2,4-oxadiazol-5-yl)-2-isopropoxybenzonitrile]
EC50: 0.05 to 0.5 nM

CC(C)Oc1ccc(-c2nc(-c3cccc4c3CCC4N3CC(C(=O)O)C3)no2)cc1C#N (racemic) [Compound 18, 1-(4-(5-(3-cyano-4-isopropoxyphenyl)-1,2,4-oxadiazol-3-yl)-2,3-dihydro-1H-inden-1-yl)azetidine-3-carboxylic acid]
EC50: < 0.05 nM

CC(C)Oc1ccc(-c2nc(-c3cccc4c3CCC4NC3CCNCC3)no2)cc1C#N (racemic) [Compound 19, 2-isopropoxy-5-(3-(1-(piperidin-4-ylamino)-2,3-dihydro-1H-inden-4-yl)-1,2,4-oxadiazol-5-yl)benzonitrile]
EC50: > 5 nM

CC(C)Oc1ccc(-c2nc(-c3cccc4c3CCC4NCCN3CCCCC3)no2)cc1C#N (racemic) [Compound 20]
EC50: > 5 nM

CC(C)Oc1ccc(-c2nc(-c3cccc4c3CCC4NCCN3CCOCC3)no2)cc1C#N (racemic) [Compound 21]
EC50: 0.5 to 5 nM

CC(C)Oc1ccc(-c2nc(-c3cccc4c3CCC4NC3CCCCC3)no2)cc1C#N (racemic) [Compound 22]
EC50: > 5 nM

CC(C)Oc1ccc(-c2nc(-c3cccc4c3CCC4NC3CCOCC3)no2)cc1C#N (racemic) [Compound 23]
EC50: 0.5 to 5 nM

CC(C)Oc1ccc(-c2nc(-c3cccc4c3CCC4N3CCN(CCO)CC3)no2)cc1C#N (racemic) [Compound 24]
EC50: 0.05 to 0.5 nM

CC(C)Oc1ccc(-c2nc(-c3cccc4c3CCC4NCCN3CCNCC3)no2)cc1C#N (racemic) [Compound 25]
EC50: > 5 nM

CC(C)Oc1ccc(-c2nc(-c3cccc4c3CCC4NCCN3CCCC3)no2)cc1C#N (racemic) [Compound 26]
EC50: 0.5 to 5 nM

CNCCNC1CCc2c(-c3noc(-c4ccc(OC(C)C)c(C#N)c4)n3)cccc21 (racemic) [Compound 27]
EC50: 0.5 to 5 nM

CCN(CC)CCNC1CCc2c(-c3noc(-c4ccc(OC(C)C)c(C#N)c4)n3)cccc21 (racemic) [Compound 28]
EC50: 0.5 to 5 nM

CC(C)Oc1ccc(-c2nc(-c3cccc4c3CCC4NCCN)no2)cc1C#N (racemic) [Compound 29]
EC50: 0.05 to 0.5 nM

COC(=O)CCNC1CCc2c(-c3noc(-c4ccc(OC(C)C)c(C#N)c4)n3)cccc21 (racemic) [Compound 35]
EC50: 0.05 to 0.5 nM

COC(=O)C1CN(C2CCc3c(-c4noc(-c5ccc(OC(C)C)c(C#N)c5)n4)cccc32)C1 (racemic) [Compound 36]
EC50: 0.05 to 0.5 nM

CC(=O)OCCNC1CCc2c(-c3noc(-c4ccc(OC(C)C)c(C#N)c4)n3)cccc21 (racemic) [Compound 37]
EC50: 0.05 to 0.5 nM

COCC(=O)NC1CCc2c(-c3noc(-c4ccc(OC(C)C)c(C#N)c4)n3)cccc21 (racemic) [Compound 39]
EC50: 0.05 to 0.5 nM

CCOC(=O)CNC1CCc2c(-c3noc(-c4ccc(OC(C)C)c(C#N)c4)n3)cccc21 (racemic) [Compound 40]
EC50: 0.05 to 0.5 nM

CC(C)Oc1ccc(-c2nc(-c3cccc4c3CCC4NCCS(C)(=O)=O)no2)cc1C#N (racemic) [Compound 44]
EC50: 0.05 to 0.5 nM

CNS(=O)(=O)CCNC1CCc2c(-c3noc(-c4ccc(OC(C)C)c(C#N)c4)n3)cccc21 (racemic) [Compound 45, 2-((4-(5-(3-cyano-4-isopropoxyphenyl)-1,2,4-oxadiazol-3-yl)-2,3-dihydro-1H-inden-1-yl)amino)-N-methylethanesulfonamide]
EC50: 0.05 to 0.5 nM

CC(C)Oc1ccc(-c2nc(-c3cccc4c3CCC4N3CCOCC3)no2)cc1C#N (racemic) [Compound 46]
EC50: 0.5 to 5 nM

CC(C)Oc1ccc(-c2nc(-c3cccc4c3CCC4N3CCNCC3)no2)cc1C#N (racemic) [Compound 47]
EC50: 0.05 to 0.5 nM

CC(C)Oc1ccc(-c2nc(-c3cccc4c3CCC4N3CCCCC3)no2)cc1C#N (racemic) [Compound 48]
EC50: > 5 nM

N#Cc1cc(-c2nc(-c3cccc4c3CCC4NCCO)no2)ccc1O (racemic) [Compound 102, 2-hydroxy-5-(3-(1-((2-hydroxyethyl)amino)-2,3-dihydro-1H-inden-4-yl)-1,2,4-oxadiazol-5-yl)benzonitrile]
EC50: > 5 nM

CC(C)COc1ccc(-c2nc(-c3cccc4c3CCC4NCCO)no2)cc1C#N (racemic) [Compound 103, 5-(3-(1-((2-hydroxyethyl)amino)-2,3-dihydro-1H-inden-4-yl)-1,2,4-oxadiazol-5-yl)-2-isobutoxybenzonitrile]
EC50: 0.5 to 5 nM

COCCOc1ccc(-c2nc(-c3cccc4c3CCC4NCCO)no2)cc1C#N (racemic) [Compound 106]
EC50: > 5 nM

CC(C)C(=O)Oc1ccc(-c2nc(-c3cccc4c3CCC4NCCO)no2)cc1C#N (racemic) [Compound 108]
EC50: > 5 nM

N#Cc1cc(-c2nc(-c3cccc4c3CCC4NCCO)no2)ccc1OCC(=O)O (racemic) [Compound 109]
EC50: > 5 nM

COC(=O)CCCCNC1CCc2c(-c3noc(-c4ccc(OC(C)C)c(C#N)c4)n3)cccc21 (racemic) [Compound 147]
EC50: < 0.05 nM

CC(C)Oc1ccc(-c2nc(-c3cccc4c3CCC4NS(C)(=O)=O)no2)cc1C#N (stereo in doubt) [Compound 70]
EC50: 0.05 to 0.5 nM

CNCCS(=O)(=O)NC1CCc2c(-c3noc(-c4ccc(OC(C)C)c(C#N)c4)n3)cccc21 (stereo in doubt) [Compound 75]
EC50: 0.5 to 5 nM

CC(C)Oc1ccc(-c2nc(-c3cccc4c3CCC4NS(=O)(=O)CCN(C)C)no2)cc1C#N (stereo in doubt) [Compound 77]
EC50: 0.05 to 0.5 nM

CC(C)Oc1ccc(-c2nc(-c3cccc4c3CCC4NS(=O)(=O)c3ccccc3)no2)cc1C#N (stereo in doubt) [Compound 79]
EC50: 0.5 to 5 nM

CC(C)Oc1ccc(-c2nc(-c3cccc4c3CCC4NS(=O)(=O)c3ccc(C(=O)O)cc3)no2)cc1C#N (stereo in doubt) [Compound 80]
EC50: > 5 nM

CC(=O)Nc1ccc(S(=O)(=O)NC2CCc3c(-c4noc(-c5ccc(OC(C)C)c(C#N)c5)n4)cccc32)cc1 (stereo in doubt) [Compound 82]
EC50: > 5 nM

COCCNC1CCc2c(-c3noc(-c4ccc(OC(C)C)c(C#N)c4)n3)cccc21 (stereo in doubt) [Compound 88]
EC50: 0.5 to 5 nM

CC(C)Oc1cc(C#N)cc(-c2nc(-c3cccc4c3CCC4N)no2)c1 (stereo in doubt) [Compound 97, (R)-3-(3-(1-amino-2,3-dihydro-1H-inden-4-yl)-1,2,4-oxadiazol-5-yl)-5-isopropoxy benzo-nitrile]
EC50: > 5 nM

CC(C)Oc1ccc(-c2nc(-c3cccc4c3CCC4N[C@@H](C)c3ccccc3)no2)cc1C#N (stereo in doubt) [Compound 123]
EC50: > 5 nM

CCOc1ccc(-c2nc(-c3cccc4c3CC[C@H]4O)no2)cc1OCC [Compound 1]
EC50: 0.05 to 0.5 nM

CCOc1ccc(-c2nc(-c3cccc4c3CC[C@@H]4O)no2)cc1OCC [Compound 2]
EC50: 0.05 to 0.5 nM

CCOc1ccc(-c2nc(-c3cccc4c3CC[C@H]4O)no2)cc1C#N [Compound 3]
EC50: 0.05 to 0.5 nM

CCOc1ccc(-c2nc(-c3cccc4c3CC[C@@H]4O)no2)cc1C#N [Compound 4]
EC50: 0.05 to 0.5 nM
